Measured values as given in patent US11098059B2, “PRMT5 inhibitors” (Merck Sharp & Dohme Corp., priority 2017, dated 2021).
Read-outs that look alike come from different tables or passages of the source.

Tests used:
[1] = target: Full-length (FL)-PRMT5-MEP50 enzyme complex (Homo sapiens (Human), UniProt O14744); experiment: PRMT5-MEP50 Enzyme Methylation Assay; assay type: biochemical; for Enzyme Methylation Assay IC50 1: top concentration 100000 nM
Description: PRMT5-MEP50 Enzyme Methylation Assay
PRMT5/MEP50 biochemical assay is a direct measurement of the methylation activity of the enzyme complex on a short peptide substrate derived from the N-terminus of H4 histone. The methylation experiment is performed with recombinant protein. The assessment of inhibitory effect (IC50) of small molecules is measured by the effectiveness of the compounds to inhibit this reaction.
To each well of a white ProxiPlus 384 well-plate, 100 nL of compound (1% DMSO in final assay volume of 10 μL) was dispensed, followed by the addition of 8 μL of 1× assay buffer (50 mM Bicine pH 8.0, 1 mM DTT, 0.004% Tween20, 0.01% BSA) containing 0.5 nM of Full-length (FL)-PRMT5-MEP50 enzyme complex (recombinant proteins from baculovirus-transfected Sf21 cells: FL-PRMT5; MW=[…] and FL-MEP50; MW=38614). Plates were sealed and placed in a 37° C. humidified chamber for 30 minutes pre-incubation with compounds. Subsequently, each reaction was initiated by the addition of 2 μL 1× assay buffer containing 75 nM biotinylated H4R3(Me1) peptide, and 15 μM S-(5′-Adenosyl)-L-Methionine Chloride (SAM). The final reaction in each well of 10 μL consists of 0.5 nM PRMT5-MEP50, 75 nM biotinylated-peptide, and 15 μM SAM. Methylation reactions were allowed to proceed for 150 minutes in a sealed plate at 37° C. Reactions were immediately quenched by the addition of 1 μL of 10% formic acid. Plates were then frozen and shipped to SAMDI™ Tech Inc. to determine the percent conversion from […]. IC50 values were determined by 7 parameters biphasic fit model plotting the percent product conversion vs. (Log10) compound concentrations.

[2] = target: PRMT5 (Homo sapiens (Human), UniProt O14744); experiment: PRMT5 Cell Target Engagement (TE) Assay; assay type: cell-based; conditions: treated 3 days, nuclear SDMA by high content imaging, top concentration 10000 nM
Excerpt: PRMT5 Cell Target Engagement (TE) Assay
The PRMT5 TE assay is a biomarker assay for identifying compounds that inhibit symmetric dimethylation of arginine (SDMA) of PRMT5 substrates. This assay detects symmetrically dimethylated nuclear proteins using high content imaging technology. Detection of the expression of symmetrically dimethylated nucleo proteins is through a mixture of primary rabbit monoclonal antibodies to SDMA (CST 13222), which in turn recognized by an Alexafluor 488 dye-conjugated anti-rabbit IgG secondary antibody. The IN Cell Analyzer 2200 measures nuclear Alexafluor 488 fluorescent dye intensity that is directly related to the level of expression of symmetrically dimethylated nuclear proteins at the single cell level. Nuclear AF488 dye intensities are compared to the mean value for DMSO treated cells […] to report percent of inhibition for each compound-treated well.
Each well of a BD falcon collagen coated black/clear bottom 384-well plate was seeded with 4000 MCF-7 cells and allowed to attach for 5 hours. Media from cell plate was removed at 0.5 mm above the bottom of the plate and replaced with 30 μL of fresh media containing 1.2× compounds in 0.1% DMSO. Cells were treated for 3 days in 37° C. CO2 incubator. On day 3, cells were fixed with Cytofix, permeablized with 0.4% Triton-X-100/Cytofix, and washed with D-PBS without Ca/Mg. Cells were blocked with Licor Odessey blocking reagent for one hour at room temperature, followed by incubation with anti-SDMA (1:1000) antibody at 4° C. overnight. 1 antibody was removed, followed by three washings with DPBS without Ca/Mg and 0.05% Tween20. Hoechst (5 μg/ml), Cell Mask deep stain (1:2000) and Alexa488-conjugated goat anti-rabbit IgG (2 μg/mL) was added for 1 hour at room temperature. A final washing step (three washes) was performed before sealing plate for imaging on In Cell Analyzer 2200. Images from analyzer were uploaded to Columbus (at WP) for image analysis. IC50 values were determined by 4 parameters robust fit of percent fluorescence units vs. (Log10) compound concentrations.

[3] = read-out: Enzyme Methylation Assay IC50_1
[4] = read-out: Enzyme Methylation Assay IC50_2
[5] = MCF-7 cells, read-out: TE Assay EC50

Chain of Full-length (FL)-PRMT5-MEP50 enzyme complex (O14744 whole entry): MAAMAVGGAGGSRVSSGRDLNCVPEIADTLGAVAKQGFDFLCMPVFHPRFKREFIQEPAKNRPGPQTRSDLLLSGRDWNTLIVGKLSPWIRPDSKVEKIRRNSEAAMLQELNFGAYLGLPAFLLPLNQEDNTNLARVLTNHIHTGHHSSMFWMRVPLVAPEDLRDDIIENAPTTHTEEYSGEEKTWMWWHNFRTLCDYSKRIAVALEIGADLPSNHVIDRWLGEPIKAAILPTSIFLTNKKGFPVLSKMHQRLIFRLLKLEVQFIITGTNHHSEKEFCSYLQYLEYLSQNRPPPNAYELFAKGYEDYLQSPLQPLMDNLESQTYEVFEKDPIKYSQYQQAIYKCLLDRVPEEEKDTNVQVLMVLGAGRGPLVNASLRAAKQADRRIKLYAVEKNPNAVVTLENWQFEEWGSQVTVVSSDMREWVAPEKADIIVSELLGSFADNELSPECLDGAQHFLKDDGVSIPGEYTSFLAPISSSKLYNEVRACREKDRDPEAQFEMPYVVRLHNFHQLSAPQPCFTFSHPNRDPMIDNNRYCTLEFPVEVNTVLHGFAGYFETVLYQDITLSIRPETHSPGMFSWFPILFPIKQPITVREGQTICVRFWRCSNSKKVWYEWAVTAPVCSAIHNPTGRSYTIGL
Chain of Full-length (FL)-PRMT5-MEP50 enzyme complex (Q9BQA1 whole entry partner): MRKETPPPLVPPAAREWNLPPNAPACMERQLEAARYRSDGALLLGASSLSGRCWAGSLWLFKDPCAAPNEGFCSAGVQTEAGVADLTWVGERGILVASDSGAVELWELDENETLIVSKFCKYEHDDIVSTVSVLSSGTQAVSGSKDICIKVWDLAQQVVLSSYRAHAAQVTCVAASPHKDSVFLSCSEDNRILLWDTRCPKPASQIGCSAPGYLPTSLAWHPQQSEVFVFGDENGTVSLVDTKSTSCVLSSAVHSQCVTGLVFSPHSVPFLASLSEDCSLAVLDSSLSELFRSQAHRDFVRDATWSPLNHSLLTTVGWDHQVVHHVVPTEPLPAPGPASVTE
Chain of PRMT5 (O14744 whole entry): as the sequence (O14744 whole entry) above
Chain of PRMT5 (Q9BQA1 whole entry partner): as the sequence (Q9BQA1 whole entry partner) above

| Compound | IC50 [1, 3] [µM] | IC50 [1, 4] [µM] | EC50 ([2]; TE Assay EC50, MCF-7 cells) [µM] | EC50 [2, 5] [µM] |
| --- | --- | --- | --- | --- |
| CC1(C)CN(C[C@@H](O)[C@@H]2Cc3ccccc3CN2)C(=O)c2ccc(C(=O)N3[C@@H]4CC[C@H]3C[C@@H](O)C4)cc21 [Example 21, 2-((R)-2-hydroxy-2-((S)-1,2,3,4-tetrahydroisoquinolin-3-yl)ethyl)-6-((1R,3R,5S)-3-hydroxy-8-azabicyclo[3.2.1]octane-8-carbonyl)-4,4-dimethyl-3,4-dihydroisoquinolin-1(2H)-one] | 0.00052 | 0.0881 | 0.00552 |  |
| CC[C@H]1CN(C[C@@H](O)[C@@H]2Cc3ccccc3CN2)C(=O)c2ccc(Br)cc21 (single isomer, unassigned) [Example 3] | 0.411 | 21.3 |  | ≥ 10 |
| CC[C@H]1CN(C[C@@H](O)[C@@H]2Cc3ccccc3CN2)C(=O)c2ccc(C(=O)N3C4CCC3COC4)cc21 (single isomer, unassigned) [Example 15] | 0.00954 | 3.21 |  | 0.12 |
| CC[C@H]1CN(C[C@@H](O)[C@@H]2Cc3ccccc3CN2)C(=O)c2ccc(Br)cc21 (single isomer, unassigned) [Example 1] | 0.00538 | 3.74 |  | 2.86 |
| O=C1c2ccc(C(=O)N3C4CCC3COC4)cc2CCN1CC(O)[C@@H]1Cc2ccccc2CN1 (stereo partly drawn) [Example 30, 2-{2-hydroxy-2-[(3S)-1,2,3,4-tetrahydroisoquinolin-3-yl]ethyl}-6-(3-oxa-8-azabicyclo[3.2.1]oct-8-ylcarbonyl)-3,4-dihydroisoquinolin-1(2H)-one] | 0.0166 | 6.28 |  | 0.869 |
| CCC1CN(CC(O)[C@@H]2Cc3ccccc3CN2)C(=O)c2ccc(C(=O)N3C4CCC3COC4)cc21 (stereo partly drawn) [Example 12, 4-ethyl-2-{2-hydroxy-2-[(3S)-1,2,3,4-tetrahydroisoquinolin-3-yl]ethyl}-6-(3-oxa-8-azabicyclo[3.2.1]oct-8-ylcarbonyl)-3,4-dihydroisoquinolin-1(2H)-one] | 0.00063 | 0.253 | 0.0298 |  |
| CC[C@H]1CN(C[C@@H](O)[C@@H]2Cc3ccccc3CN2)C(=O)c2ccc(C(=O)N3C4CCC3COC4)cc21 (single isomer, unassigned) [Example 14] | 0.00024 | 0.0317 | 0.00252 |  |
| CO[C@H]1C[C@H]2CC[C@@H](C1)N2C(=O)c1ccc2c(c1)C(C)(C)CN(C[C@@H](O)[C@@H]1Cc3ccccc3CN1)C2=O [Example 23, 2-((R)-2-hydroxy-2-((S)-1,2,3,4-tetrahydroisoquinolin-3-yl)ethyl)-6-((1R,3R,5S)-3-methoxy-8-azabicyclo[3.2.1]octane-8-carbonyl)-4,4-dimethyl-3,4-dihydroisoquinolin-1(2H)-one] | 0.0005 | 0.0977 | 0.00214 |  |
| CC[C@H]1CN(C[C@@H](O)[C@@H]2Cc3ccccc3CN2)C(=O)c2ccc(-c3ncnn3C)cc21 (single isomer, unassigned) [Example 8] | 0.049 | 28.5 |  | 7.68 |
| CC1(C)CN(C[C@@H](O)[C@@H]2Cc3ccccc3CN2)C(=O)c2ccc(C(=O)N3C4COC5C4OCC53)cc21 [Example 27, 6-(hexahydro-3,6-epiminofuro[3,2-b]furan-7-carbonyl)-2-((R)-2-hydroxy-2-((S)-1,2,3,4-tetrahydroisoquinolin-3-yl)ethyl)-4,4-dimethyl-3,4-dihydroisoquinolin-1(2H)-one] | 0.00035 | 0.115 |  | 0.0186 |
| CC[C@H]1CN(C[C@@H](O)[C@@H]2Cc3ccccc3CN2)C(=O)c2ccc(-c3ncnn3C)cc21 (single isomer, unassigned) [Example 6] | 0.00382 | 5.08 |  | 1.44 |
